Experimental data from patent publication US20260262643A1, “HERBICIDAL BENZOXAZINES” (FMC CORPORATION, priority 2022, published 2026).

Columns and labels:
[1] = system: ducksalad; assay: Test B flooded paddy test; assay type: in vivo, Heteranthera limosa; details: 250 g ai/ha, Flood, 13 days, 0 to 100 scale (0 no effect, 100 complete control)
Procedure, shortened: (§1)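 Two-leaf plants, 3 cm flood, in-water application, 13-day greenhouse hold, visual 0–100 rating vs untreated checks.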

[2] = system: ryegrass, Italian; assay: Test A postemergence; assay type: in vivo, Lolium multiflorum
Procedure, shortened: (§2)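 Visual injury ratings on a 0–100 scale (100 = complete control) versus untreated controls, taken 10 days after treatment in greenhouse. Preemergence: directed soil spray onto seeded loam/sand. Postemergence: foliar application at one- to two-leaf stage, plants 2–10 cm. Formulation: non-phytotoxic solvent plus surfactant.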

[3] = system: goosegrass; assay: Test A preemergence; assay type: in vivo, Eleusine indica
Procedure, shortened: as §2

[4] = system: soybean; assay: Test A preemergence; assay type: in vivo, Glycine max
Source text: (§3) Seeds of plant species selected from barnyardgrass (Echinochloa crusgalli), blackgrass (Alopecurus myosuroides), corn (Zea mays), foxtail, giant (giant foxtail, Setaria faberi), goosegrass (Eleusine indica), kochia (Bassia scoparia), oat, wild (wild oat, Avena fatua), pigweed, palmer (palmer amaranth, palmer pigweed, Amaranthus palmeri), Pigweed, Redroot (redroot pigweed, Amaranthus retroflexus), ragweed (common ragweed, Ambrosia artemisiifolia), ryegrass, Italian (italian ryegrass, Lolium multiflorum), soybean (Glycine max), and wheat (Triticum aestivum) were planted into a blend of loam soil and sand and treated preemergence with a directed soil spray using test chemicals formulated in a non-phytotoxic solvent mixture which included a surfactant. At the same time, plants selected from these crops and weed species and also galium (catchweed bedstraw, Galium aparine) and horseweed (Erigeron canadensis) were planted in pots containing the same blend of loam soil and sand and treated with postemergence applications of test chemicals formulated in the same manner. Plants ranged in height from 2 to 10 cm and were in the one- to two-leaf stage for the postemergence treatment. Treated plants and untreated controls were maintained in a greenhouse for 10 days, after which time all treated plants were compared to untreated controls and visually evaluated for injury. Plant response ratings, summarized in Table A, are based on a 0 to 100 scale where 0 is no effect and 100 is complete control. A dash (-) response means no test result.

[5] = system: foxtail, giant; assay: Test A postemergence; assay type: in vivo, Setaria faberi
Procedure, shortened: as §2

[6] = system: wheat; assay: Test A postemergence; assay type: in vivo, Triticum aestivum
Source text: as §3

[7] = system: sedge, umbrella; assay: Test B flooded paddy test; assay type: in vivo, Cyperus difformis; details: 250 g ai/ha, Flood, 13 days, 0 to 100 scale (0 no effect, 100 complete control)
Procedure, shortened: as §1

[8] = system: goosegrass; assay: Test A postemergence; assay type: in vivo, Eleusine indica
Procedure, shortened: as §2

[9] = system: oat, wild; assay: Test A postemergence; assay type: in vivo, Avena fatua
Source text: as §3

[10] = system: kochia; assay: Test A postemergence; assay type: in vivo, Bassia scoparia
Procedure, shortened: as §2

[11] = system: ragweed; assay: Test A preemergence; assay type: in vivo, Ambrosia artemisiifolia
Procedure, shortened: as §2

[12] = system: corn; assay: Test A postemergence; assay type: in vivo, Zea mays
Source text: as §3

[13] = system: soybean; assay: Test A postemergence; assay type: in vivo, Glycine max
Source text: as §3

[14] = system: barnyardgrass; assay: Test B flooded paddy test; assay type: in vivo, Echinochloa crus-galli; details: 250 g ai/ha, Flood, 13 days, 0 to 100 scale (0 no effect, 100 complete control)
Procedure, shortened: as §1

[15] = system: rice; assay: Test B flooded paddy test; assay type: in vivo, Oryza sativa; details: 250 g ai/ha, Flood, 13 days, 0 to 100 scale (0 no effect, 100 complete control)
Procedure, shortened: as §1

[16] = system: pigweed, palmer; assay: Test A postemergence; assay type: in vivo, Amaranthus palmeri
Procedure, shortened: as §2

[17] = system: wheat; assay: Test A preemergence; assay type: in vivo, Triticum aestivum
Source text: as §3

[18] = system: pigweed, palmer; assay: Test A preemergence; assay type: in vivo, Amaranthus palmeri
Procedure, shortened: as §2

[19] = system: ryegrass, Italian; assay: Test A preemergence; assay type: in vivo, Lolium multiflorum
Procedure, shortened: as §2

[20] = system: corn; assay: Test A preemergence; assay type: in vivo, Zea mays
Source text: as §3

[21] = system: blackgrass; assay: Test A preemergence; assay type: in vivo, Alopecurus myosuroides
Procedure, shortened: as §2

[22] = system: ragweed; assay: Test A postemergence; assay type: in vivo, Ambrosia artemisiifolia
Procedure, shortened: as §2

[23] = system: kochia; assay: Test A preemergence; assay type: in vivo, Bassia scoparia
Procedure, shortened: as §2

[24] = system: blackgrass; assay: Test A postemergence; assay type: in vivo, Alopecurus myosuroides
Procedure, shortened: as §2

[25] = system: galium; assay: Test A postemergence; assay type: in vivo, Galium aparine
Procedure, shortened: as §2

[26] = system: foxtail, giant; assay: Test A preemergence; assay type: in vivo, Setaria faberi
Procedure, shortened: as §2

[27] = system: oat, wild; assay: Test A preemergence; assay type: in vivo, Avena fatua
Source text: as §3

[28] = 125 g ai/ha, postemergence, 10 days, visual injury, 0 to 100 scale (0 no effect, 100 complete control)
[29] = 500 g ai/ha, Postemergence, 0 to 100 scale
[30] = 125 g ai/ha, visual injury after 10 days, 0 to 100 scale, 0 is no effect, 100 is complete control
[31] = 500 g ai/ha, 0 to 100 scale (0 no effect, 100 complete control), 10 days

CC1CN(C(=O)c2cc(F)cc(-n3cncn3)c2)c2cccc(Cl)c2O1 (stereo not drawn) [Compound 37]
40: Plant response rating, Wheat [6, 28] | Plant response rating, Goosegrass [8, 28] | Plant response rating, Galium [25, 28]
30: Plant response rating, Ryegrass, Italian [2, 28] | Plant response rating, Oat, Wild [9, 29] | Plant response rating, Pigweed, Palmer [16, 28] | Plant response rating, Blackgrass [24, 28]
70: Plant response rating, Soybean [4, 31]
50: Plant response rating, Foxtail, Giant [5, 28] | Plant response rating, Kochia [10, 28] | Plant response rating, Pigweed, Palmer [18, 30]
20: Plant response rating, Wheat [17, 31] | Plant response rating, Corn [20, 31] | Plant response rating, Kochia [23, 31]
90: Plant response rating, Ryegrass, Italian [2, 29] | Plant response rating, Goosegrass [3, 30] | Plant response rating, Foxtail, Giant [5, 29] | Plant response rating, Goosegrass [8, 29] | Plant response rating, Kochia [10, 29] | Plant response rating, Pigweed, Palmer [18, 31] | Plant response rating, Ryegrass, Italian [19, 31] | Plant response rating, Foxtail, Giant [26, 30]
10: Plant response rating, Corn [12, 28]
0: Plant response rating, Ducksalad [1] | Plant response rating, Soybean [4, 30] | Plant response rating, Sedge, Umbrella [7] | Plant response rating, Oat, Wild [9, 28] | Plant response rating, Ragweed [11, 30] | Plant response rating, Ragweed [11, 31] | Plant response rating, Barnyardgrass [14] | Plant response rating, Rice [15] | Plant response rating, Wheat [17, 30] | Plant response rating, Corn [20, 30] | Plant response rating, Ragweed [22, 28] | Plant response rating, Ragweed [22, 29] | Plant response rating, Kochia [23, 30] | Plant response rating, Oat, Wild [27, 30]
100: Plant response rating, Goosegrass [3, 31] | Plant response rating, Soybean [13, 28] | Plant response rating, Soybean [13, 29] | Plant response rating, Galium [25, 29] | Plant response rating, Foxtail, Giant [26, 31]
80: Plant response rating, Wheat [6, 29] | Plant response rating, Corn [12, 29] | Plant response rating, Ryegrass, Italian [19, 30] | Plant response rating, Blackgrass [21, 31] | Plant response rating, Blackgrass [24, 29]
60: Plant response rating, Pigweed, Palmer [16, 29] | Plant response rating, Blackgrass [21, 30] | Plant response rating, Oat, Wild [27, 31]

Cc1ccc(C(=O)N2CC(C)Oc3c(Cl)cccc32)cc1-n1cncn1 (stereo not drawn) [Compound 38]
100: Plant response rating, Goosegrass [3, 31] | Plant response rating, Foxtail, Giant [26, 31]
20: Plant response rating, Kochia [10, 28] | Plant response rating, Corn [12, 28] | Plant response rating, Corn [20, 30]
60: Plant response rating, Ryegrass, Italian [2, 29] | Plant response rating, Foxtail, Giant [5, 28] | Plant response rating, Kochia [10, 29] | Plant response rating, Oat, Wild [27, 31]
0: Plant response rating, Ducksalad [1] | Plant response rating, Soybean [4, 30] | Plant response rating, Sedge, Umbrella [7] | Plant response rating, Oat, Wild [9, 28] | Plant response rating, Ragweed [11, 30] | Plant response rating, Ragweed [11, 31] | Plant response rating, Barnyardgrass [14] | Plant response rating, Rice [15] | Plant response rating, Wheat [17, 30] | Plant response rating, Ragweed [22, 28] | Plant response rating, Ragweed [22, 29] | Plant response rating, Kochia [23, 30] | Plant response rating, Blackgrass [24, 28]
40: Plant response rating, Oat, Wild [9, 29]
30: Plant response rating, Soybean [4, 31] | Plant response rating, Goosegrass [8, 28] | Plant response rating, Pigweed, Palmer [16, 28] | Plant response rating, Corn [20, 31] | Plant response rating, Blackgrass [21, 30] | Plant response rating, Kochia [23, 31] | Plant response rating, Galium [25, 28]
70: Plant response rating, Goosegrass [3, 30] | Plant response rating, Wheat [6, 29] | Plant response rating, Goosegrass [8, 29] | Plant response rating, Pigweed, Palmer [18, 31] | Plant response rating, Ryegrass, Italian [19, 30] | Plant response rating, Blackgrass [21, 31] | Plant response rating, Blackgrass [24, 29] | Plant response rating, Foxtail, Giant [26, 30]
80: Plant response rating, Corn [12, 29] | Plant response rating, Ryegrass, Italian [19, 31]
10: Plant response rating, Ryegrass, Italian [2, 28] | Plant response rating, Wheat [6, 28] | Plant response rating, Wheat [17, 31] | Plant response rating, Pigweed, Palmer [18, 30] | Plant response rating, Oat, Wild [27, 30]
50: Plant response rating, Soybean [13, 29] | Plant response rating, Pigweed, Palmer [16, 29] | Plant response rating, Galium [25, 29]
90: Plant response rating, Foxtail, Giant [5, 29]
